# Test results taken from patent US12285034B2, “Human and non-human animal use of microbial anaplerotic oil” (HELIAE DEVELOPMENT, LLC, priority 2017, dated 2025).
# Like-named read-outs stand apart in the source and are kept apart here.
# What was measured:
# [1] = test system: Aurantiochytrium acetophilum HS399
# Description: Respective Erlenmeyer flasks (250 mL) can be inoculated (1% v/v) in triplicates with a 24 hour (h) old culture of A. acetophilum HS399 and incubated in an orbital shaker at 180 rpm and 27° C.
# In this implementation, the respective Erlenmeyer flasks contain 100 mL of a medium supplemented with (g/L): dextrose (50), ammonium acetate (2.3), NaCl (12.5), MgSO4 7H2O (2.5), KH2PO4 (0.5), KCl (0.5) and CaCl2 (0.1). This medium also contains trace element solution (5 ml/L) and vitamin solution (1 ml/L). The trace element solution contains (g/L): EDTA di-sodium salt (6), FeCl3 6H2O (0.29), […] (6.84), MnCl2 4H2O (0.86), ZnCl2 (0.06), CoCl2 6H2O (0.026), NiSO4 6H2O (0.052), CuSO4 5H2O (0.002), Na2MoO4H2O (0.005). The vitamin solution contains (mg/L): thiamine (100), biotin (0.5) and cyanocobalamin (0.5). All culture materials can be autoclaved (121° C., 15 min) and media can be filter sterilized before use. […] Daily samples can be collected to analyze the cell dry weight, residual glucose, culture pH, lipid and fatty acid composition of the cultures. Cell dry weights are analyzed by vacuum filtration (0.2 μm) and washed with a solution of ammonium bicarbonate. Residual glucose is analyzed using a colorimetric method based on glucose […] activity. Biomass for lipid analysis can be centrifuged and washed using purified water. The washed biomass can be freeze dried. Total lipids are analyzed using the Folch method (AOAC 996.06) and the FAMES are analyzed by gas chromatography using nonadecanoic (C19:0) acid as an internal standard.
# [2] = test system: Aurantiochytrium acetophilum HS399; format: cell-based
# Description: In this implementation, initially (24 h incubation), the culture pH may not be controlled, and the pH of the respective treatments can drift from 7.5 to 8. After 24 h incubation, the desired pH set point of each treatment can be set using the respective organic acids. […] The cultures are aerated at 1.4 vvm and maintained at 27° C. under axenic conditions. […] This medium also contains a trace element solution (5 ml/L) and a vitamin solution (1 ml/L). The trace element solution can contain (g/L): […] […] Residual glucose is analyzed from culture supernatant (5000 g; 5 min) using a colorimetric method based on glucose […] activity. Residual acetate and propionate are analyzed by HPLC using external standard.
# [3] = test system: Aurantiochytrium acetophilum HS399; remark: listed apart in the source
# Description: In one implementation, a 250 mL Erlenmeyer flask can be used to cultivate A. acetophilum HS399.
# In one implementation, a 250 mL Erlenmeyer flask can be used to cultivate A. acetophilum HS399. […] Cell dry weights may be analyzed using a filtration method. Ammonia can be measured using a Cedex bio-analyzer (Roche). […] The fatty acid profile of the biomass can be analyzed using gas chromatography.
# [4] = test system: Aurantiochytrium acetophilum HS399; experiment: Growth on propionate as sole carbon source (Example 9); format: cell-based; conditions: 10 g/L, pH 7
# From the text: FIG. 35 is a graphical representation of one implementation that illustrates results 3500 of growth of A. acetophilum HS399 with different carbon sources.
# [5] = test system: Aurantiochytrium acetophilum HS399; conditions: for OCFA / Total Fatty Acids: 73 h, 10 L fermenter
# Description: […] In this implementation, the pH can be maintained at 7±1 in respective treatments.
# In one implementation, fermenters may be used to culture A. acetophilum HS399. […] In this implementation, two treatments using different cyanocobalamin concentrations (0.00185, 0 μM) are compared in duplicates.
# [6] = test system: Aurantiochytrium acetophilum HS399; experiment: Single vs two-stage fermentation with propionic acid (Example 12); format: cell-based; conditions: propionic acid fed
# From the text: Further, in this implementation, during the lipid phase, no additional nitrogen is fed, and the cell accumulated the lipids. In the single stage mode, half of the nitrogen (2.5 g/L NH3) can be batch fed, while the other half (2.5 g/L NH3) can be fed along with the glucose until the end of the fermentation. In this implementation, both treatments receive substantially the same nutrients; however, the single stage mode grows and accumulates lipids in a coordinated way throughout the fermentation. The single stage system can be characterized by an early lipid accumulation. […] Each of the four treatments can be cultured in duplicate (n=2) fermenters. […] As illustrated, propionic acid slows down the growth on both systems, but the two-stage system provides a better growth rate than the single stage system in the presence of propionate. […] This implementation illustrates that the traditional two stage approach to lipid accumulation may be preferable to produce OCFAs.
compound,measurement,setting,value
"CCC(=O)O [Propionate, propionic acid]",OCFA Productivity,[1],0.81 ± 0.06 g/L/day
same,concentration strongly inhibitory to growth,[1],10000 µg/mL
same,growth inhibitory concentration,[1],3 g/L
same,substantially lethal residual (extracellular) concentration,[1]; pH of 6,~15 g/L
same,OCFA,"[1]; propionate 10 g/L, 68 h",63.1 ± 0.7 % TFA
same,Total Fatty Acids,"[1]; propionate 10 g/L, 68 h",42.8 ± 0.9 % DW
same,Total Lipids,"[1]; propionate 10 g/L, 68 h",55.3 ± 0.6 % DW
same,OCFA,"[1]; propionate 10 g/L, 68 h, listed as propionate",63 % TFA
same,Propionate deposition,[1]; propionate printed 1100 g/L,6.9 ± 0.5%
same,"effect on growth (cell dry weight, glucose)",[2],highly growth inhibitory
same,Consumed propionate,[2]; pH 5 set point,2.3 ± 0.2 g/L
same,Propionic Acid Deposited,[2]; pH 5 set point,30.9 ± 2.0%
same,Consumed propionate,[2]; pH 6 set point,2.4 ± 0.1 g/L
same,Propionic Acid Deposited,[2]; pH 6 set point,40.3 ± 1.6%
same,effect on growth (cell dry weight),[2]; pH 7,not growth inhibitory
same,Consumed propionate,[2]; pH 7 set point,1.0 ± 0.1 g/L
same,Propionic Acid Deposited,[2]; pH 7 set point,24.7 ± 1.0%
same,Total Fatty Acid,"[2]; propionic acid titrant, pH 5",59.2 ± 3.1 % CDW
same,Total Lipids,"[2]; propionic acid titrant, pH 5",75.0 ± 3.0 % CDW
same,Total Fatty Acid,"[2]; propionic acid titrant, pH 6",63.4 ± 0.3 % CDW
same,Total Lipids,"[2]; propionic acid titrant, pH 6",79.5 ± 1.5 % CDW
same,OCFA,"[2]; propionic acid titrant, pH 7",6.3 % TFA
same,Total Fatty Acid,"[2]; propionic acid titrant, pH 7",70.3 ± 2.8 % CDW
same,Total Lipids,"[2]; propionic acid titrant, pH 7",87.5 ± 1.5 % CDW
same,Propionate deposition,[3]; 0 + 3 g/L fed in lipid phase,58.8 ± 1.9%
same,Propionate deposition,"[3]; 0 + 3 g/L fed in lipid phase, listed as propionate",58.8%
same,Propionate deposition,[3]; 3 g/L fed in growth phase,53.0 ± 1.0%
same,Propionate deposition,"[3]; 3 g/L fed in growth phase, listed as propionate",53%
same,growth on propionate as sole carbon source,[4],did not support growth above that of the starved treatment
same,less propionic acid consumed without cyanocobalamin,"[5]; 10 L fermenters, pH-auxostat, 0 μM vs with cyanocobalamin",30%
same,OCFA,[5]; cyanocobalamin 0 μM,52.0 % TFA
same,Total Fatty Acids,[5]; cyanocobalamin 0 μM,56.9 % DW
same,OCFA,[5]; cyanocobalamin 0.37 μM,52.6 ± 0.5 % TFA
same,Total Fatty Acids,[5]; cyanocobalamin 0.37 μM,54.7 ± 0.5 % DW
same,Propionate deposition,[5]; cyanocobalamin 0 μM,65.7%
same,gpropionate/gbiomass,[5]; cyanocobalamin 0 μM,0.14
same,Propionate deposition,[5]; cyanocobalamin 0.37 μM,49.9%
same,gpropionate/gbiomass,[5]; cyanocobalamin 0.37 μM,0.18 ± 0.01
same,time in which initial propionate is consumed,"[5]; initial 3 g/L, pH 7±1, flask",≤ 72 h
same,Productivity,"[6]; single stage, 96 h",20.7 g/L/day
same,Biomass Yield,"[6]; single stage, batch time 96 h",82.5 g/L
same,Productivity,"[6]; two stage, 89 h",34.1 g/L/day
same,Biomass Yield,"[6]; two stage, batch time 89 h",125.8 g/L
